Columns and labels:
Hepatotoxicity [1] = tested on: Hepatotoxicity;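 on HepSE cholecystitis: Cholecystitis-related hepatic side effect score drawn from the DILIps (drug-induced liver injury prediction) training data set; call rule not given here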;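 on HepSE cirrhosis: cirrhosis hepatic side effect score taken from the DILIps (drug-induced liver injury prediction) training set; call rule not given here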;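 on HepSE elevated liver function tests: hepatic side effect score for raised liver function tests, as recorded in the DILIps training set used for predicting drug-induced liver injury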;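 on HepSE hepatic necrosis: score of hepatic side effects for hepatic necrosis, drawn from the training data of DILIps, a prediction system for drug-induced liver injury; call rule not given here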;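 on HepSE hepatomegaly: hepatic side effect score for hepatomegaly, taken from the training set of the DILIps drug-induced liver injury prediction system; call rule not given here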;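 on HepSE jaundice: Jaundice-related hepatic side-effect score drawn from the training data of the DILIps (drug-induced liver injury prediction system); call rule not given here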
Hepatotoxicity [2] = tested on: Hepatotoxicity; remark: listed apart in the source;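 on HepSE cholecystitis: Cholecystitis-related hepatic side effect score drawn from the DILIps (drug-induced liver injury prediction) training data set; call rule not given here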;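 on HepSE cirrhosis: cirrhosis hepatic side effect score taken from the DILIps (drug-induced liver injury prediction) training set; call rule not given here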;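 on HepSE elevated liver function tests: hepatic side effect score for raised liver function tests, as recorded in the DILIps training set used for predicting drug-induced liver injury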;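 on HepSE hepatic necrosis: score of hepatic side effects for hepatic necrosis, drawn from the training data of DILIps, a prediction system for drug-induced liver injury; call rule not given here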;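 on HepSE hepatomegaly: hepatic side effect score for hepatomegaly, taken from the training set of the DILIps drug-induced liver injury prediction system; call rule not given here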;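 on HepSE jaundice: Jaundice-related hepatic side-effect score drawn from the training data of the DILIps (drug-induced liver injury prediction system); call rule not given here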
Hepatotoxicity [3] = tested on: Hepatotoxicity; remark: listed apart in the source;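 on HepSE cholecystitis: Cholecystitis-related hepatic side effect score drawn from the DILIps (drug-induced liver injury prediction) training data set; call rule not given here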;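 on HepSE cirrhosis: cirrhosis hepatic side effect score taken from the DILIps (drug-induced liver injury prediction) training set; call rule not given here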;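 on HepSE elevated liver function tests: hepatic side effect score for raised liver function tests, as recorded in the DILIps training set used for predicting drug-induced liver injury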;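 on HepSE hepatic necrosis: score of hepatic side effects for hepatic necrosis, drawn from the training data of DILIps, a prediction system for drug-induced liver injury; call rule not given here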;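 on HepSE hepatomegaly: hepatic side effect score for hepatomegaly, taken from the training set of the DILIps drug-induced liver injury prediction system; call rule not given here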;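 on HepSE jaundice: Jaundice-related hepatic side-effect score drawn from the training data of the DILIps (drug-induced liver injury prediction system); call rule not given here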
Hepatotoxicity [4] = tested on: Hepatotoxicity; remark: listed apart in the source;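 on HepSE cholecystitis: Cholecystitis-related hepatic side effect score drawn from the DILIps (drug-induced liver injury prediction) training data set; call rule not given here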;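 on HepSE cirrhosis: cirrhosis hepatic side effect score taken from the DILIps (drug-induced liver injury prediction) training set; call rule not given here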;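 on HepSE hepatic necrosis: score of hepatic side effects for hepatic necrosis, drawn from the training data of DILIps, a prediction system for drug-induced liver injury; call rule not given here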;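 on HepSE hepatomegaly: hepatic side effect score for hepatomegaly, taken from the training set of the DILIps drug-induced liver injury prediction system; call rule not given here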;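 on HepSE jaundice: Jaundice-related hepatic side-effect score drawn from the training data of the DILIps (drug-induced liver injury prediction system); call rule not given here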
Hepatotoxicity [5] = tested on: Hepatotoxicity; remark: listed apart in the source
Hepatotoxicity [6] = tested on: Hepatotoxicity; remark: listed apart in the source
Hepatotoxicity [7] = tested on: Hepatotoxicity; remark: listed apart in the source
Hepatotoxicity [8] = tested on: Hepatotoxicity; remark: listed apart in the source
Hepatotoxicity [9] = tested on: Hepatotoxicity; remark: listed apart in the source
Hepatotoxicity [10] = tested on: Hepatotoxicity; remark: listed apart in the source
Hepatotoxicity [11] = tested on: Hepatotoxicity; remark: listed apart in the source
Hepatotoxicity [12] = tested on: Hepatotoxicity; remark: listed apart in the source
Hepatotoxicity [13] = tested on: Hepatotoxicity; remark: listed apart in the source
Hepatotoxicity [14] = tested on: Hepatotoxicity; remark: listed apart in the source

SMILES	HepSE_cholecystitis (Hepatotoxicity [1])	HepSE_cirrhosis (Hepatotoxicity [2])	HepSE_hepatic necrosis (Hepatotoxicity [3])	HepSE_hepatomegaly (Hepatotoxicity [4])	HepSE_jaundice (Hepatotoxicity [5])	HepSE_elevated liver function tests (Hepatotoxicity [6])	HepSE_hepatic failure (Hepatotoxicity [7])	HepSE_liver disease (Hepatotoxicity [8])	HepSE_bilirubinemia (Hepatotoxicity [9])	HepSE_hepatitis (Hepatotoxicity [10])	HepSE_cholelithiasis (Hepatotoxicity [11])	HepSE_liver fatty (Hepatotoxicity [12])	HepSE_Combined Scores (Hepatotoxicity [13])	HepSE_liver function tests abnormal (Hepatotoxicity [14])	other results
CC[C@H](C)[C@@H]1NC(=O)[C@H](Cc2ccc(O)cc2)NC(=O)[C@@H](N)CSSC[C@@H](C(=O)N2CCC[C@H]2C(=O)N[C@@H](CC(C)C)C(=O)NCC(N)=O)NC(=O)[C@H](CC(N)=O)NC(=O)[C@H](CCC(N)=O)NC1=O [OXYTOCIN]	0	0	0	0	0	0	0	0	0	0	0	0	0	0	
CC(=O)O[C@H]1C(=O)[C@@]2(C)[C@H]([C@H](OC(=O)c3ccccc3)[C@]3(O)C[C@H](OC(=O)[C@H](O)[C@@H](NC(=O)c4ccccc4)c4ccccc4)C(C)=C1C3(C)C)[C@]1(OC(C)=O)CO[C@@H]1C[C@@H]2O [PACLITAXEL]															HepSE_cholecystitis (Hepatotoxicity [1]; Liver): 0; HepSE_cirrhosis (Hepatotoxicity [2]; Liver): 0; HepSE_hepatic necrosis (Hepatotoxicity [3]; Liver): 1; HepSE_hepatomegaly (Hepatotoxicity [4]; Liver): 0; HepSE_jaundice (Hepatotoxicity [5]; Liver): 0; HepSE_elevated liver function tests (Hepatotoxicity [6]; Liver): 1; HepSE_hepatic failure (Hepatotoxicity [7]; Liver): 0; HepSE_liver disease (Hepatotoxicity [8]; Liver): 0; HepSE_bilirubinemia (Hepatotoxicity [9]; Liver): 0; HepSE_hepatitis (Hepatotoxicity [10]; Liver): 0; HepSE_cholelithiasis (Hepatotoxicity [11]; Liver): 0; HepSE_liver fatty (Hepatotoxicity [12]; Liver): 0; HepSE_Combined Scores (Hepatotoxicity [13]; Liver): 2; HepSE_liver function tests abnormal (Hepatotoxicity [14]; Liver): 0
Cc1nc2n(c(=O)c1CCN1CCC(c3noc4cc(F)ccc34)CC1)CCCC2O (stereo not drawn) [PALIPERIDONE]	0	0	0	0	0	0	0	0	0	0	0	0	0	0	
O=C1c2cccc3c2[C@H](CCC3)CN1[C@@H]1CN2CCC1CC2 [PALONOSETRON]	0	0	0	0	0	0	0	0	0	0	0	0	0	0	
NCCC(O)(P(=O)(O)O)P(=O)(O)O [PAMIDRONIC ACID]	0	0	0	0	0	0	0	0	0	0	0	0	1	1	
CC(=O)O[C@H]1C[C@@H]2CC[C@@H]3[C@H](CC[C@@]4(C)[C@H]3C[C@H]([N+]3(C)CCCCC3)[C@@H]4OC(C)=O)[C@@]2(C)C[C@@H]1[N+]1(C)CCCCC1 [PANCURONIUM]															HepSE_cholecystitis (Hepatotoxicity [1]; Liver): 0; HepSE_cirrhosis (Hepatotoxicity [2]; Liver): 0; HepSE_hepatic necrosis (Hepatotoxicity [3]; Liver): 0; HepSE_hepatomegaly (Hepatotoxicity [4]; Liver): 0; HepSE_jaundice (Hepatotoxicity [5]; Liver): 0; HepSE_elevated liver function tests (Hepatotoxicity [6]; Liver): 0; HepSE_hepatic failure (Hepatotoxicity [7]; Liver): 0; HepSE_liver disease (Hepatotoxicity [8]; Liver): 0; HepSE_bilirubinemia (Hepatotoxicity [9]; Liver): 0; HepSE_hepatitis (Hepatotoxicity [10]; Liver): 0; HepSE_cholelithiasis (Hepatotoxicity [11]; Liver): 0; HepSE_liver fatty (Hepatotoxicity [12]; Liver): 0; HepSE_Combined Scores (Hepatotoxicity [13]; Liver): 0; HepSE_liver function tests abnormal (Hepatotoxicity [14]; Liver): 0
COc1ccnc(C[S+]([O-])c2nc3ccc(OC(F)F)cc3[nH]2)c1OC (stereo not drawn) [PANTOPRAZOLE]	1	0	0	0	1	0	1	0	1	1	1	0	7	1	
C[C@H](/C=C/[C@H](C)C(C)(C)O)[C@H]1CC[C@H]2/C(=C/C=C3C[C@@H](O)C[C@H](O)C3)CCC[C@]12C [PARICALCITOL]	0	0	0	0	0	0	0	0	0	0	0	0	0	0	
NC[C@@H]1O[C@H](O[C@H]2[C@@H](O)[C@H](O[C@@H]3[C@@H](O)[C@H](N)C[C@H](N)[C@H]3O[C@H]3O[C@H](CO)[C@@H](O)[C@H](O)[C@H]3N)O[C@@H]2CO)[C@H](N)[C@@H](O)[C@@H]1O [PAROMOMYCIN]	0	0	0	0	0	0	0	0	0	0	0	0	0	0	
Fc1ccc([C@@H]2CCNC[C@H]2COc2ccc3c(c2)OCO3)cc1 [PAROXETINE]	0	0	1	0	1	1	1	0	1	1	1	0	8	1	
Nc1nc2[nH]cc(CCc3ccc(C(=O)N[C@@H](CCC(=O)O)C(=O)O)cc3)c2c(=O)[nH]1 [PEMETREXED]	0	0	0	0	0	0	0	0	0	0	0	0	0	0	
NC1=NC(=O)C(c2ccccc2)O1 (stereo not drawn) [PEMOLINE]	0	0	0	0	1	0	0	0	0	1	0	0	2	0	

Reference: ChEMBL document CHEMBL1909294, “Translating clinical findings into knowledge in drug safety evaluation--drug induced liver injury prediction system (DILIps)” (PLoS Comput Biol, 2011)
